Data reported in article PMC8540953, “Preparation and Pharmacokinetic Characterization of an Anti-Virulence Compound Nanosuspensions” (Pharmaceutics, 2021).

Columns and labels:
[1] = In vitro dissolution in 0.5% SDS solution; assay type: physicochemical; settings: 37 °C, 75 rpm
Procedure: The concentrations of CCG-211790 nanosuspensions were measured using an Agilent series 1100 HPLC system (Agilent Technologies, Santa Clara, CA, USA) equipped with a diode array detector. Sample separation was carried out with a Kinetex C18 column (75 mm × 3 mm, particle size 2.6 µm, Phenomenex, Torrance, CA, USA). The mobile phase was acetonitrile-water (50:50, v/v), flow rate was set to 0.5 mL/min, and column temperature to 35 °C. The injection volume was 30 µL. The absorption wavelength was set at 255 nm. CCG-211790 nanoparticles were dissolved in the mobile phase for HPLC analysis. Due to the fact that the analyte concentration was high and no other matrix was present in the sample, the HPLC method performed very well with excellent calibration linearity, reproducibility, and spike recovery. During sample analysis, ongoing quality controls were performed including a reagent blank, a duplicate sample, and spike recovery samples for every 10 samples analyzed.
The in vitro dissolution profiles of CCG-211790 bulk powder, NanoA and NanoB suspensions were examined. SDS is one of the most frequently used artificial surfactants in dissolution test to establish sink conditions for water-insoluble drugs. Therefore, a SDS solution (0.5% w/v in water) was used as the dissolution medium in this study. In each dissolution test, suspension or powder equivalent to 4 mg of CCG-211790 were directly dispersed in 500 mL dissolution medium under magnetic stirring at 75 rpm. The temperature of the dissolution medium was maintained at 37 ± 1 °C in a water bath. Sample aliquots (3 mL) were withdrawn at predetermined time points (5, 10, 20, 30, 45, and 60 min) and immediately replaced with 3 mL of fresh dissolution medium to readjust the volume to 500 mL. Undissolved particles were separated by centrifugation at 10,000× g for 5 min and the supernatant was collected for HPLC analysis. All experiments were run in triplicate.

[2] = Solubility and solution stability of CCG-211790; assay type: physicochemical; settings: PEG/PG solution, aqueous with cosolvent or surfactant or cyclodextrin; ethanol (10%), propylene glycol (25%), PEG 400 (35%) and water (30%)
[3] = cited from earlier work
[4] = test system: methicillin-resistant Staphylococcus aureus (MRSA); parameters: method as in PMID 33556134; settings: cited from earlier work

Compound | drug release ([1]; at 5 min) | drug release ([1]; at 45 min) | drug release ([1]; at 60 min) | solubility [2] | aqueous solubility [3] | solubility in coconut oil [3] | biofilm formation of MRSA [4]
COc1ccc2c(c1)-c1nc(SCC(F)(F)F)n(C)c(=O)c1C(C)(C)C2 [CCG-211790 bulk powder] | 19.6% | 63.4% | 64.3% |  |  |  | 
COc1ccc2c(c1)-c1nc(SCC(F)(F)F)n(C)c(=O)c1C(C)(C)C2 [CCG-211790, 9-methoxy-3,5,5-trimethyl-2-((2,2,2-trifluoroethyl)thio)-5,6-dihydrobenzo[h]quinazolin-4(3H)-one] |  |  |  | ≤ 1000 µg/mL | less than 50 ng/mL | up to 37 mg/mL | inhibited
